The subject of one data set is S.aureus ATCC 29213. Put plainly: MIC, standard microdilution assay. The data set is classed as cell-based, Staphylococcus aureus. As to conditions: Reference strain, wild type; CLSI microdilution, cation-supplemented Mueller-Hinton broth, 5x10^4 CFU/well, 18–20 h at 37°C, triplicate. Here is the method: (§1) MICs were determined using a standard microdilution assay as recommended by the Clinical and Laboratory Standards Institute. Assays were performed in triplicate using cation-supplemented Mueller-Hinton (MH) broth (Becton Dickinson, Franklin Lakes, NJ, USA) and a bacterial inoculum of 5x10^4 CFU/well, in a final volume of 100 µl. The tested concentrations ranged from 0.1 µM to 24 µM for both peptides. Results were recorded after 18–20 h of incubation at 37°C.
(In broth dilution the organism is exposed to a series of concentrations in liquid medium.)

The test system of a further data set is K.pneumoniae ATCC 13833. As to the kind of experiment: MIC, standard microdilution assay. It counts as cell-based, Klebsiella pneumoniae. The following applies: Reference strain, wild type; CLSI microdilution, cation-supplemented Mueller-Hinton broth, 5x10^4 CFU/well, 18–20 h at 37°C, triplicate. On the procedure: as §1
The target in data set [1] is T1, Pseudomonas aeruginosa elastase (Pseudomonas aeruginosa, UniProt P14756).
T1 construct: purchased Calbiochem
The data set is classed as in vitro ADME. As to conditions: 1 mM CaCl2 pH 7.8, 37°C; for stability to elastase (in words): HPLC and MS. On the procedure: Tetrabranched M33-L or M33-D peptides (300 µg) were incubated at 37°C with Staphylococcus aureus aureolysin (3 µg, BioCol GmbH) or Pseudomonas aeruginosa elastase (3 µg, Calbiochem) in 300 µl 20 mM Tris-HCl, 1 mM CaCl2 pH 7.8. At indicated time intervals, 50 µl aliquots were removed, diluted with 950 µl of 0.1% trifluoroacetic acid (TFA)/water and analyzed by HPLC and mass spectrometry. Liquid chromatography was performed on Phenomenex Jupiter C18 analytical column (300 Å, 5 µm, 250×4.6 mm) in a 30 min gradient, using TFA 0.1%/water as solvent A and methanol as solvent B. Mass spectrometry analysis was performed on withdrawn samples and repeated on HPLC-eluted peaks with a Bruker Daltonic ultraflex MALDI TOF/TOF mass spectrometer.

Data set [2] concerns P. aeruginosa ATCC 27853 biofilm. It counts as cell-based, Pseudomonas aeruginosa. As to conditions: ATCC 27853, 20 h. Here is the method: Biofilm formation was performed by adapting the procedure described in [39] using the Calgary Biofilm Device (Innovotech, Innovotech Inc. Edmonton, Canada). Briefly, 96-well plates containing the bacterial inoculum were sealed with lids bearing 96 pegs on which the biofilm could build up. The plates were placed in an orbital incubator at 35°C (for P. aeruginosa and E. coli) or 37°C (for S. aureus) for 20 h under agitation at 125 rpm. Once biofilms formed, the lids were removed from the plates and the pegs were rinsed twice with phosphate buffered saline (PBS) to remove planktonic cells. The peg-lid was then transferred to a 96-well challenge microtiter plate, each well containing 200 µl of a twofold serial dilution of each peptide in LB medium. The challenge plate was incubated at 37°C for 2 hours. Peptide activity on pre-formed biofilm was evaluated by two independent methods: (i) visual observation of bacterial growth and (ii) counting of living bacterial cells after peptide treatment. In the first case, the peg-lid was removed from the challenge plate, rinsed with PBS and used to cover a 96-well recovery microtiter plate, each well containing 200 µl LB medium. The recovery plate was sealed, incubated at 37°C for 4 hours and then observed for any visible growth of bacteria detached from the peptide-treated biofilm. […]

Another data set has as its system P.aeruginosa AV 65. The data set is classed as cell-based, Pseudomonas aeruginosa. Here is the method:
as §1

The subject of the next data set is K.pneumoniae 7086042. It counts as cell-based, Klebsiella pneumoniae. On the procedure: as §1
For data set [3], the system named is P. aeruginosa ATCC 27853 biofilm. It counts as cell-based, Pseudomonas aeruginosa. The following applies: ATCC 27853, 2 h. Here is the method:
(§2) Biofilm formation was performed by adapting the procedure described in [39] using the Calgary Biofilm Device (Innovotech, Innovotech Inc. Edmonton, Canada). Briefly, 96-well plates containing the bacterial inoculum were sealed with lids bearing 96 pegs on which the biofilm could build up. The plates were placed in an orbital incubator at 35°C (for P. aeruginosa and E. coli) or 37°C (for S. aureus) for 20 h under agitation at 125 rpm. Once biofilms formed, the lids were removed from the plates and the pegs were rinsed twice with phosphate buffered saline (PBS) to remove planktonic cells. The peg-lid was then transferred to a 96-well challenge microtiter plate, each well containing 200 µl of a twofold serial dilution of each peptide in LB medium. The challenge plate was incubated at 37°C for 2 hours. Peptide activity on pre-formed biofilm was evaluated by two independent methods: (i) visual observation of bacterial growth and (ii) counting of living bacterial cells after peptide treatment. In the first case, the peg-lid was removed from the challenge plate, rinsed with PBS and used to cover a 96-well recovery microtiter plate, each well containing 200 µl LB medium. […] Colony forming units (CFU) were expressed as percentage with respect to control (peptide-untreated biofilms). […]

For a further data set, the system named is S.epidermidis 6154. It counts as cell-based, Staphylococcus epidermidis. Here is the method: as §1
Data set [4] concerns E. coli ATCC 25922 biofilm. It counts as cell-based, Escherichia coli. As to conditions: ATCC 25922, 2 h. Here is the method:
as §2

The test system of the next data set is P.aeruginosa ATCC 27853. As to the kind of experiment: MIC, standard microdilution assay. The data set is classed as cell-based, Pseudomonas aeruginosa. The following applies: Reference strain, wild type; CLSI microdilution, cation-supplemented Mueller-Hinton broth, 5x10^4 CFU/well, 18–20 h at 37°C, triplicate. Here is the method: as §1
[5] abbreviates: 300 µg peptide + 3 µg P. aeruginosa elastase, 20 mM Tris-HCl.

In brackets after ≈: the same amount, converted by molar mass. Bridge positions count the residues as written; N and C are the ends. Square brackets hold non-standard residues; d marks the D form. Peptide text beside a SMILES is read from it. I, II: the chains in the order shown. βAla = NCCC(=O)O Some results are limits rather than exact numbers.

T1 sequence (P14756 198-498): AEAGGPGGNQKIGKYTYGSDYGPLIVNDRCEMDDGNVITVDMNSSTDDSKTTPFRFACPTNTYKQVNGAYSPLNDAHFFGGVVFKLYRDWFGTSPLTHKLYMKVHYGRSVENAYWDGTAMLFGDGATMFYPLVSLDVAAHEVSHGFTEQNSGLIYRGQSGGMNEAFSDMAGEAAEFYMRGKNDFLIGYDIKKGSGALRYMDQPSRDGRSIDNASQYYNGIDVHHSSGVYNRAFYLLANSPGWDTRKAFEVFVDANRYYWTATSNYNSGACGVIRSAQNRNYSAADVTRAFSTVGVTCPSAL

A word on the MIC: it is the lowest concentration that inhibits growth of the organism. Low values mean inhibition by little substance, high ones a need for much substance. Regarding `CC[C@H](C)[C@H](NC(=O)[C@H](CCCCN)NC(=O)[C@@H](N)CCCCN)C(=O)N[C@@H](CCCNC(=N)N)C(=O)N[C@H](C(=O)N[C@@H](CCCNC(=N)N)C(=O)N[C@@H](CC(C)C)C(=O)N[C@@H](CO)C(=O)N[C@@H](C)C(=O)NCCCC[C@H](NC(=O)[C@H](C)NC(=O)[C@H](CO)NC(=O)[C@H](CC(C)C)NC(=O)[C@H](CCCNC(=N)N)NC(=O)[C@@H](NC(=O)[C@H](CCCNC(=N)N)NC(=O)[C@@H](NC(=O)[C@H](CCCCN)NC(=O)[C@@H](N)CCCCN)[C@@H](C)CC)C(C)C)C(=O)NCCCC[C@H](NC(=O)[C@H](CCCCNC(=O)[C@H](C)NC(=O)[C@H](CO)NC(=O)[C@H](CC(C)C)NC(=O)[C@H](CCCNC(=N)N)NC(=O)[C@@H](NC(=O)[C@H](CCCNC(=N)N)NC(=O)[C@@H](NC(=O)[C@H](CCCCN)NC(=O)[C@@H](N)CCCCN)[C@@H](C)CC)C(C)C)NC(=O)[C@H](C)NC(=O)[C@H](CO)NC(=O)[C@H](CC(C)C)NC(=O)[C@H](CCCNC(=N)N)NC(=O)[C@@H](NC(=O)[C@H](CCCNC(=N)N)NC(=O)[C@@H](NC(=O)[C@H](CCCCN)NC(=O)[C@@H](N)CCCCN)[C@@H](C)CC)C(C)C)C(=O)NCCC(=O)O)C(C)C` [M33-L] (I: H-KKIRVRLSAKK[βAla]-OH / II: H-KKIRVRLSAK / III: H-KKIRVRLSA / IV: H-KKIRVRLSA; amide I:10-IV:C, I:11-II:C, II:10-III:C; N-terminus assumed), the MIC against S.aureus ATCC 29213 is listed as 6 µM (≈ 28.1 µg/mL); against K.pneumoniae ATCC 13833, 1.5 µM (≈ 7.02 µg/mL); against P.aeruginosa AV 65, 3 µM (≈ 14 µg/mL); with K.pneumoniae 7086042, 3 µM (≈ 14 µg/mL); with S.epidermidis 6154, 3 µM (≈ 14 µg/mL); against P.aeruginosa ATCC 27853, 1.5 µM (≈ 7.02 µg/mL). Also, in [1] (setting [5]), the “stability to elastase (in words)” value was “poorly stable”. For the same compound, the “stability after 5 h incubation with elastase (in words)” value in data set [1] (5 h, 300 µg peptide + 3 µg P. aeruginosa elastase, 20 mM Tris-HCl, HPLC peak of intact peptide still present) is recorded as “moderate peptide stability”. In data set [2], the “Minimum biofilm eradication concentration (MBEC)” value worked out at 1.5 µM. For the same compound, the “Minimum bactericidal concentration on biofilm (MBCb)” value in data set [3] and in [4] was 6 µM (≈ 28.1 µg/mL) each time.
Regarding `CC[C@@H](C)[C@@H](NC(=O)[C@@H](CCCCN)NC(=O)[C@H](N)CCCCN)C(=O)N[C@H](CCCNC(=N)N)C(=O)N[C@@H](C(=O)N[C@H](CCCNC(=N)N)C(=O)N[C@H](CC(C)C)C(=O)N[C@H](CO)C(=O)N[C@H](C)C(=O)NCCCC[C@H](NC(=O)[C@@H](C)NC(=O)[C@@H](CO)NC(=O)[C@@H](CC(C)C)NC(=O)[C@@H](CCCNC(=N)N)NC(=O)[C@H](NC(=O)[C@@H](CCCNC(=N)N)NC(=O)[C@H](NC(=O)[C@@H](CCCCN)NC(=O)[C@H](N)CCCCN)[C@H](C)CC)C(C)C)C(=O)NCCCC[C@H](NC(=O)[C@H](CCCCNC(=O)[C@@H](C)NC(=O)[C@@H](CO)NC(=O)[C@@H](CC(C)C)NC(=O)[C@@H](CCCNC(=N)N)NC(=O)[C@H](NC(=O)[C@@H](CCCNC(=N)N)NC(=O)[C@H](NC(=O)[C@@H](CCCCN)NC(=O)[C@H](N)CCCCN)[C@H](C)CC)C(C)C)NC(=O)[C@@H](C)NC(=O)[C@@H](CO)NC(=O)[C@@H](CC(C)C)NC(=O)[C@@H](CCCNC(=N)N)NC(=O)[C@H](NC(=O)[C@@H](CCCNC(=N)N)NC(=O)[C@H](NC(=O)[C@@H](CCCCN)NC(=O)[C@H](N)CCCCN)[C@H](C)CC)C(C)C)C(=O)NCCC(=O)O)C(C)C` [M33-D] (I: H-[dK][dK][dI][dR][dV][dR][dL][dS][dA]KK[βAla]-OH / II: H-[dK][dK][dI][dR][dV][dR][dL][dS][dA]K / III: H-[dK][dK][dI][dR][dV][dR][dL][dS][dA] / IV: H-[dK][dK][dI][dR][dV][dR][dL][dS][dA]; amide I:10-IV:C, I:11-II:C, II:10-III:C; N-terminus assumed), the MIC against S.aureus ATCC 29213 was 1.5 µM (≈ 7.02 µg/mL); against K.pneumoniae ATCC 13833, 3 µM (≈ 14 µg/mL); in the data set on P.aeruginosa AV 65, 3 µM (≈ 14 µg/mL); with K.pneumoniae 7086042, 6 µM (≈ 28.1 µg/mL); in the data set with S.epidermidis 6154, 0.7 µM (≈ 3.28 µg/mL); against P.aeruginosa ATCC 27853 it was 1.5 µM (≈ 7.02 µg/mL). For the same compound, in data set [1] (300 µg peptide + 3 µg P. aeruginosa elastase in 300 µl 20 mM Tris-HCl, HPLC and MALDI MS read-out), the “time of resistance to degradation by elastase” value is on record as at least 24 h. For the same compound, the “stability to elastase (in words)” value in data set [1] (setting [5]) was “highly stable”. For the same compound, the “Minimum biofilm eradication concentration (MBEC)” value in data set [2] amounted to 3 µM. The “Minimum bactericidal concentration on biofilm (MBCb)” value in [3] and in [4] was 6 µM (≈ 28.1 µg/mL) throughout.

The values above are taken from article PMC3462775 (PLoS ONE, 2012).
